Source: ChEMBL document CHEMBL3885861, “Open TG-GATES”

Organism: Rattus norvegicus
Test: Open TG-GATES - Regimen: Daily Repeat
Format: toxicity, organism-based, Sprague-Dawley
Set-up: regimen Daily Repeat, gender Male, age 6 weeks
Conditions: in vivo, po, route gavage; for APTT / Bas / Eos / Fbg / Hb / Ht / Lym / MCH / MCHC / MCV / Mono / Neu / PT / Plat / RBC / Ret / WBC: tissue Blood; for KIDNEY_L / KIDNEY_R / KIDNEY_TOTAL: tissue Kidney; for LIVER: tissue Liver; for A/G / ALP / ALT / AST / BUN / CRE / Ca / Cl / DBIL / GLC / IP / K / LDH / Na / PL / RALB / TBIL / TC / TG / TP / gamma-GTP: tissue Plasma
[1] = 0 mg/kg, 72 h, dose level Control, time 3 day
[2] = 0 mg/kg, […], dose level Control, time 7 day
[3] = 0 mg/kg, […], dose level Control, time 14 day
[4] = 0 mg/kg, […], dose level Control, time 28 day
[5] = 30 mg/kg, 72 h, dose level Low, time 3 day
[6] = 30 mg/kg, […], dose level Low, time 7 day
[7] = 30 mg/kg, […], dose level Low, time 14 day
[8] = 30 mg/kg, […], dose level Low, time 28 day

CCc1oc2ccccc2c1C(=O)c1cc(I)c(O)c(I)c1 [BENZIODARONE]
TERMINAL_BW [1]: 239.1 g
APTT [1]: 17.3 s
Bas [1]: 0%
Eos [1]: 0.8%
Fbg [1]: 216.8 mg/dL
Hb [1]: 14.1 g/dL
Ht [1]: 41.9%
Lym [1]: 76.2%
MCH [1]: 21.4 pg
MCHC [1]: 33.7%
MCV [1]: 63.6 fL
Mono [1]: 7%
Neu [1]: 15.6%
PT [1]: 11.7 s
Plat [1]: 125.7 x10_4/uL
RBC [1]: 658.4 x10_4/ul
Ret [1]: 6.2%
WBC [1]: 99.6 x10_2/uL
KIDNEY_L [1]: 1.1 g
KIDNEY_R [1]: 1.1 g
KIDNEY_TOTAL [1]: 2.2 g
LIVER [1]: 11.6 g
A/G [1]: 1.8
ALP [1]: 882.4 IU/L
ALT [1]: 39 IU/L
AST [1]: 62.6 IU/L
BUN [1]: 17.4 mg/dL
CRE [1]: 0.5 mg/dL
Ca [1]: 10.7 mg/dL
Cl [1]: 104.6 meq/L
DBIL [1]: 0.014 mg/dL
GLC [1]: 203.2 mg/dL
IP [1]: 7.2 mg/dL
K [1]: 4.7 meq/L
LDH [1]: 79.6 IU/L
Na [1]: 141 meq/L
PL [1]: 147.4 mg/dL
RALB [1]: 3.7 g/dL
TBIL [1]: 0.3 mg/dL
TC [1]: 75.4 mg/dL
TG [1]: 103.6 mg/dL
TP [1]: 5.7 g/dL
gamma-GTP [1]: 1.2 IU/L
TERMINAL_BW [2]: 272.7 g
TERMINAL_BW [3]: 335.3 g
TERMINAL_BW [4]: 397 g
APTT [2]: 16.8 s
Bas [2]: 0%
Eos [2]: 1%
Fbg [2]: 220 mg/dL
Hb [2]: 14.2 g/dL
Ht [2]: 41.6%
Lym [2]: 77.8%
MCH [2]: 21.4 pg
MCHC [2]: 34.1%
MCV [2]: 62.8 fL
Mono [2]: 7.2%
Neu [2]: 14.2%
PT [2]: 11.5 s
Plat [2]: 125.2 x10_4/uL
RBC [2]: 662.2 x10_4/ul
Ret [2]: 4.5%
WBC [2]: 108.6 x10_2/uL
APTT [3]: 17.1 s
Bas [3]: 0%
Eos [3]: 1%
Fbg [3]: 220.6 mg/dL
Hb [3]: 14.2 g/dL
Ht [3]: 41.9%
Lym [3]: 80.8%
MCH [3]: 20.9 pg
MCHC [3]: 34%
MCV [3]: 61.5 fL
Mono [3]: 6%
Neu [3]: 12.6%
PT [3]: 11.5 s
Plat [3]: 115.3 x10_4/uL
RBC [3]: 683.2 x10_4/ul
Ret [3]: 3.1%
WBC [3]: 110 x10_2/uL
APTT [4]: 17.9 s
Bas [4]: 0%
Eos [4]: 1.6%
Fbg [4]: 215.8 mg/dL
Hb [4]: 15.8 g/dL
Ht [4]: 46.8%
Lym [4]: 80%
MCH [4]: 19.5 pg
MCHC [4]: 33.7%
MCV [4]: 57.7 fL
Mono [4]: 5.4%
Neu [4]: 13.4%
PT [4]: 11.9 s
Plat [4]: 117.3 x10_4/uL
RBC [4]: 812.6 x10_4/ul
Ret [4]: 3.1%
WBC [4]: 150.6 x10_2/uL
KIDNEY_L [2]: 1.1 g
KIDNEY_R [2]: 1.2 g
KIDNEY_TOTAL [2]: 2.3 g
KIDNEY_L [3]: 1.3 g
KIDNEY_R [3]: 1.3 g
KIDNEY_TOTAL [3]: 2.6 g
KIDNEY_L [4]: 1.4 g
KIDNEY_R [4]: 1.4 g
KIDNEY_TOTAL [4]: 2.9 g
LIVER [2]: 12.8 g
LIVER [3]: 15.1 g
LIVER [4]: 15.6 g
A/G [2]: 1.7
ALP [2]: 916.8 IU/L
ALT [2]: 36 IU/L
AST [2]: 62.8 IU/L
BUN [2]: 19.2 mg/dL
CRE [2]: 0.5 mg/dL
Ca [2]: 10.6 mg/dL
Cl [2]: 104.6 meq/L
DBIL [2]: 0.048 mg/dL
GLC [2]: 192 mg/dL
IP [2]: 6.9 mg/dL
K [2]: 4.9 meq/L
LDH [2]: 86 IU/L
Na [2]: 139.6 meq/L
PL [2]: 141.8 mg/dL
RALB [2]: 3.6 g/dL
TBIL [2]: 0.3 mg/dL
TC [2]: 65 mg/dL
TG [2]: 114.2 mg/dL
TP [2]: 5.7 g/dL
gamma-GTP [2]: 1.8 IU/L
A/G [3]: 1.6
ALP [3]: 789.8 IU/L
ALT [3]: 32.2 IU/L
AST [3]: 63.2 IU/L
BUN [3]: 19.6 mg/dL
CRE [3]: 0.5 mg/dL
Ca [3]: 10.5 mg/dL
Cl [3]: 104.4 meq/L
DBIL [3]: 0 mg/dL
GLC [3]: 201 mg/dL
IP [3]: 6.7 mg/dL
K [3]: 4.9 meq/L
LDH [3]: 97.2 IU/L
Na [3]: 140.6 meq/L
PL [3]: 149 mg/dL
RALB [3]: 3.7 g/dL
TBIL [3]: 0.3 mg/dL
TC [3]: 72.4 mg/dL
TG [3]: 152 mg/dL
TP [3]: 6 g/dL
gamma-GTP [3]: 2 IU/L
A/G [4]: 1.5
ALP [4]: 606.6 IU/L
ALT [4]: 27 IU/L
AST [4]: 57 IU/L
BUN [4]: 19.8 mg/dL
CRE [4]: 0.6 mg/dL
Ca [4]: 10.6 mg/dL
Cl [4]: 105.6 meq/L
DBIL [4]: 0.04 mg/dL
GLC [4]: 200 mg/dL
IP [4]: 5.7 mg/dL
K [4]: 4.5 meq/L
LDH [4]: 79 IU/L
Na [4]: 140 meq/L
PL [4]: 135 mg/dL
RALB [4]: 3.7 g/dL
TBIL [4]: 0.3 mg/dL
TC [4]: 58 mg/dL
TG [4]: 164.8 mg/dL
TP [4]: 6.2 g/dL
gamma-GTP [4]: 2.2 IU/L
TERMINAL_BW [5]: 242 g
APTT [5]: 17.5 s
Bas [5]: 0%
Eos [5]: 1%
Fbg [5]: 216.8 mg/dL
Hb [5]: 13.8 g/dL
Ht [5]: 40.8%
Lym [5]: 79.4%
MCH [5]: 21.9 pg
MCHC [5]: 33.8%
MCV [5]: 64.7 fL
Mono [5]: 6.4%
Neu [5]: 13.2%
PT [5]: 11.7 s
Plat [5]: 115.3 x10_4/uL
RBC [5]: 629.4 x10_4/ul
Ret [5]: 6.5%
WBC [5]: 104.5 x10_2/uL
KIDNEY_L [5]: 1.1 g
KIDNEY_R [5]: 1.1 g
KIDNEY_TOTAL [5]: 2.2 g
LIVER [5]: 12.7 g
A/G [5]: 1.8
ALP [5]: 1087.2 IU/L
ALT [5]: 42.6 IU/L
AST [5]: 67.4 IU/L
BUN [5]: 16.8 mg/dL
CRE [5]: 0.5 mg/dL
Ca [5]: 10.7 mg/dL
Cl [5]: 104 meq/L
DBIL [5]: 0.016 mg/dL
GLC [5]: 191.2 mg/dL
IP [5]: 7.8 mg/dL
K [5]: 4.5 meq/L
LDH [5]: 103.8 IU/L
Na [5]: 141 meq/L
PL [5]: 155.4 mg/dL
RALB [5]: 3.6 g/dL
TBIL [5]: 0.3 mg/dL
TC [5]: 79.4 mg/dL
TG [5]: 74.4 mg/dL
TP [5]: 5.7 g/dL
gamma-GTP [5]: 1.6 IU/L
TERMINAL_BW [6]: 274.9 g
TERMINAL_BW [7]: 323 g
TERMINAL_BW [8]: 399.3 g
APTT [6]: 17.5 s
Bas [6]: 0%
Eos [6]: 1%
Fbg [6]: 221.6 mg/dL
Hb [6]: 14.2 g/dL
Ht [6]: 41.8%
Lym [6]: 84.6%
MCH [6]: 21.5 pg
MCHC [6]: 34%
MCV [6]: 63.2 fL
Mono [6]: 4.6%
Neu [6]: 10%
PT [6]: 11.9 s
Plat [6]: 117.9 x10_4/uL
RBC [6]: 661.6 x10_4/ul
Ret [6]: 4.7%
WBC [6]: 111.9 x10_2/uL
APTT [7]: 18.1 s
Bas [7]: 0%
Eos [7]: 1%
Fbg [7]: 223.6 mg/dL
Hb [7]: 14.6 g/dL
Ht [7]: 43.4%
Lym [7]: 82.8%
MCH [7]: 20.5 pg
MCHC [7]: 33.6%
MCV [7]: 61.1 fL
Mono [7]: 5.2%
Neu [7]: 11.2%
PT [7]: 11.8 s
Plat [7]: 117.5 x10_4/uL
RBC [7]: 710 x10_4/ul
Ret [7]: 2.5%
WBC [7]: 109.1 x10_2/uL
APTT [8]: 18.9 s
Bas [8]: 0%
Eos [8]: 1.6%
Fbg [8]: 231.2 mg/dL
Hb [8]: 15.2 g/dL
Ht [8]: 45.4%
Lym [8]: 83.2%
MCH [8]: 19 pg
MCHC [8]: 33.6%
MCV [8]: 56.7 fL
Mono [8]: 4.8%
Neu [8]: 11%
PT [8]: 12 s
Plat [8]: 124.3 x10_4/uL
RBC [8]: 799.8 x10_4/ul
Ret [8]: 3%
WBC [8]: 128.8 x10_2/uL
KIDNEY_L [6]: 1.2 g
KIDNEY_R [6]: 1.2 g
KIDNEY_TOTAL [6]: 2.4 g
KIDNEY_L [7]: 1.3 g
KIDNEY_R [7]: 1.3 g
KIDNEY_TOTAL [7]: 2.5 g
KIDNEY_L [8]: 1.4 g
KIDNEY_R [8]: 1.4 g
KIDNEY_TOTAL [8]: 2.9 g
LIVER [6]: 14.7 g
LIVER [7]: 15.7 g
LIVER [8]: 18.7 g
A/G [6]: 1.7
ALP [6]: 918 IU/L
ALT [6]: 32.6 IU/L
AST [6]: 63.4 IU/L
BUN [6]: 18 mg/dL
CRE [6]: 0.6 mg/dL
Ca [6]: 10.8 mg/dL
Cl [6]: 103.4 meq/L
DBIL [6]: 0.018 mg/dL
GLC [6]: 191.8 mg/dL
IP [6]: 7.3 mg/dL
K [6]: 4.6 meq/L
LDH [6]: 101.6 IU/L
Na [6]: 139.6 meq/L
PL [6]: 153.2 mg/dL
RALB [6]: 3.7 g/dL
TBIL [6]: 0.3 mg/dL
TC [6]: 73.6 mg/dL
TG [6]: 110.6 mg/dL
TP [6]: 5.9 g/dL
gamma-GTP [6]: 2 IU/L
A/G [7]: 1.7
ALP [7]: 914 IU/L
ALT [7]: 31.8 IU/L
AST [7]: 63.2 IU/L
BUN [7]: 19.6 mg/dL
CRE [7]: 0.5 mg/dL
Ca [7]: 10.3 mg/dL
Cl [7]: 105.2 meq/L
DBIL [7]: 0.008 mg/dL
GLC [7]: 200.4 mg/dL
IP [7]: 6.7 mg/dL
K [7]: 4.6 meq/L
LDH [7]: 109.6 IU/L
Na [7]: 141.2 meq/L
PL [7]: 152.8 mg/dL
RALB [7]: 3.9 g/dL
TBIL [7]: 0.3 mg/dL
TC [7]: 71.6 mg/dL
TG [7]: 159.4 mg/dL
TP [7]: 6.2 g/dL
gamma-GTP [7]: 1.8 IU/L
A/G [8]: 1.8
ALP [8]: 629.8 IU/L
ALT [8]: 36.4 IU/L
AST [8]: 63.8 IU/L
BUN [8]: 20.2 mg/dL
CRE [8]: 0.7 mg/dL
Ca [8]: 10.9 mg/dL
Cl [8]: 104.2 meq/L
DBIL [8]: 0.01 mg/dL
GLC [8]: 194.4 mg/dL
IP [8]: 6.4 mg/dL
K [8]: 4.4 meq/L
LDH [8]: 121.4 IU/L
Na [8]: 139.6 meq/L
PL [8]: 156.6 mg/dL
RALB [8]: 4 g/dL
TBIL [8]: 0.3 mg/dL
TC [8]: 78.4 mg/dL
TG [8]: 123.8 mg/dL
TP [8]: 6.3 g/dL
gamma-GTP [8]: 1.8 IU/L
